Experimental data published in patent publication US10118916B2, “Modulators of cystic fibrosis transmembrane conductance regulator protein” (AbbVie S.à.r.l., priority 2016, dated 2018).

What was measured:
[1] = molecular target: T1, F508del/F508del CFTR (Homo sapiens, UniProt P13569, DEL508-508); assay: Transepithelial Clamp Circuit (TECC-24) conductance assay on primary human bronchial epithelial cells (hBE-TECC); type: cell-based; settings: for EC50: equivalent short circuit current, 18-24 hours at 37° C., with control potentiator; for Maximum % activity: relative to positive control (3 μM) coupled with control potentiator
T1 construct: cells isolated from CF patients with the homozygous mutation; endogenous in cells; host or cells: primary human bronchial epithelial (hBE) cells from F508del/F508del CF patients
Source text: Transepithelial Clamp Circuit on Human Bronchial Epithelial Cells Conductance Assay:
A cell based assay using the primary human bronchial epithelial cells (hBE) was used as a secondary assay to test novel F508delCFTR correctors for their activity on primary hBE cells with F508del/F508del CFTR mutation. The assay used a TECC-24 (Transepithelial Clamp Circuit for 24 wells) instrument that measures the functionality of the mutated channel by measuring the equivalent short circuit current (Ieq) generated by the polarized epithelial cells. The instrument works by measuring the transepithelial potential difference (Vt) and transepithelial resistance (Rt) in an open circuit format, and the Ieq is calculated by using Ohms law (Ieq=Vt/Rt). The assay was run in a 24-well format and all 24-wells were measured at the same time point giving a higher throughput for this assay.
Primary human bronchial epithelial (hBE) cells from F508del/F508delCFTR patients were expanded from 1×10^6 to 250×10^6 cells (Neuberger T, Burton B, Clark H and VanGoor F; Cystic Fibrosis, Methods in Mole Biol 741; eds. Amaral M D and Kunzelmann K, 2011). For this purpose, cells isolated from CF patients with the homozygous mutation were seeded onto 24 well Corning (Cat #3378) filter plates that were coated with 3T3 conditioned media and grown at an air-liquid interface for 35 days using an Ultroser® G supplemented differentiation media. Apical surface mucus was removed 72 hours before the experiment using 3 mM dithiothreitol (DTT) in phosphate buffered saline (PBS). The apical surface was washed again 24 hours before the experiment using PBS. The cells were incubated with the desired dose response of the corrector compounds 18-24 hours at 37° C., 5% CO2. The corrector compounds are only added on the basolateral side of the epithelial cells.
On the day of measuring the corrector activity on the TECC, the cells were switched into a bicarbonate and serum free F-12 Coon's medium and allowed to equilibrate for 30 minutes in a CO2 free incubator. At the time of measurement, the apical and basolateral sides of the filter were bathed with the F-12 Coon's modification media (with 20 mM 4-(2-hydroxyethyl)-1-piperazineethanesulfonic acid (HEPES), pH 7.4 (using 1 M tris(hydroxymethyl)aminomethane (Tris)), and the measurements were made at 36.5° C. Transepithelial voltage (Vt) and transepithelial resistance (Rt) were measured using a 24 channel transepithelial current clamp (TECC-24). Current responses to the sequential addition of benzamil (apical 6 μM addition; for inhibiting epithelial ENaC channel), forskolin (apical and basolateral 10 μM addition; for activating the CFTR channel), control potentiator (N-(3-carbamoyl-5,5,7,7-tetramethyl-4,7-dihydro-5H-thieno[2,3-c]pyran-2-yl)-1H-pyrazole-5-carboxamide; apical and basolateral 1 μM addition; for potentiating the CFTR channel) and bumetanide (basolateral 20 μM addition; for inhibiting the Na:2Cl:K co-transporter, an indirect measure of inhibiting the Cl— secretion driven by CFTR channel) were measured.
All plates contained negative controls (dimethyl sulfoxide, DMSO) which coupled with the control potentiator (N-(3-carbamoyl-5,5,7,7-tetramethyl-4,7-dihydro-5H-thieno[2,3-c]pyran-2-yl)-1H-pyrazole-5-carboxamide) sets the null response and positive controls (3 μM of 3-[(2R,4R)-4-({[1-(2,2-difluoro-1,3-benzodioxol-5-yl)cyclopropyl]carbonyl}amino)-7-methoxy-3,4-dihydro-2H-chromen-2-yl]benzoic acid) coupled with the control potentiator sets the 100% response to measure the correction of the mutated CFTR channel. The maximum percent activity is reported relative to the positive control value.
The % activity measured at each of the 6 test concentrations of the test compound was normalized to the on-plate positive control using the following formula: % activity=[(test compound response−DMSO response)/(positive control response−DMSO response)]*100 […]

[2] = molecular target: T2, F508delCFTR (Homo sapiens, UniProt P13569, DEL508-508); assay: Cell Surface Expression-Horse Radish Peroxidase (CSE-HRP) assay; type: cell-based; settings: CFBE41o-F508delCFTR-HRP cells; for EC50: F508delCFTR cell surface expression, luminescence, 18-24 hours at 33° C., highest concentration 20 μM; for Maximum % activity: maximum at any tested concentration, normalized to on-plate positive control (3 μM)
T2 construct: expressed in transfected cells; host or cells: CFBE41o- (human lung derived epithelial cell line), doxycycline-inducible
Outline: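 CFBE41o- cells expressing doxycycline-induced (0.5 μg/mL, 72 h at 37 °C) F508delCFTR with HRP in the fourth extracellular loop; compounds 8 points, 3-fold from 20 μM, 18-24 h at 33 °C. Surface HRP measured by luminol luminescence, normalised to DMSO and 3 μM reference corrector; EC50 from variable-slope sigmoidal fit of triplicate plates.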

T2 sequence (P13569 with tags, fused parts or gaps DEL508-508): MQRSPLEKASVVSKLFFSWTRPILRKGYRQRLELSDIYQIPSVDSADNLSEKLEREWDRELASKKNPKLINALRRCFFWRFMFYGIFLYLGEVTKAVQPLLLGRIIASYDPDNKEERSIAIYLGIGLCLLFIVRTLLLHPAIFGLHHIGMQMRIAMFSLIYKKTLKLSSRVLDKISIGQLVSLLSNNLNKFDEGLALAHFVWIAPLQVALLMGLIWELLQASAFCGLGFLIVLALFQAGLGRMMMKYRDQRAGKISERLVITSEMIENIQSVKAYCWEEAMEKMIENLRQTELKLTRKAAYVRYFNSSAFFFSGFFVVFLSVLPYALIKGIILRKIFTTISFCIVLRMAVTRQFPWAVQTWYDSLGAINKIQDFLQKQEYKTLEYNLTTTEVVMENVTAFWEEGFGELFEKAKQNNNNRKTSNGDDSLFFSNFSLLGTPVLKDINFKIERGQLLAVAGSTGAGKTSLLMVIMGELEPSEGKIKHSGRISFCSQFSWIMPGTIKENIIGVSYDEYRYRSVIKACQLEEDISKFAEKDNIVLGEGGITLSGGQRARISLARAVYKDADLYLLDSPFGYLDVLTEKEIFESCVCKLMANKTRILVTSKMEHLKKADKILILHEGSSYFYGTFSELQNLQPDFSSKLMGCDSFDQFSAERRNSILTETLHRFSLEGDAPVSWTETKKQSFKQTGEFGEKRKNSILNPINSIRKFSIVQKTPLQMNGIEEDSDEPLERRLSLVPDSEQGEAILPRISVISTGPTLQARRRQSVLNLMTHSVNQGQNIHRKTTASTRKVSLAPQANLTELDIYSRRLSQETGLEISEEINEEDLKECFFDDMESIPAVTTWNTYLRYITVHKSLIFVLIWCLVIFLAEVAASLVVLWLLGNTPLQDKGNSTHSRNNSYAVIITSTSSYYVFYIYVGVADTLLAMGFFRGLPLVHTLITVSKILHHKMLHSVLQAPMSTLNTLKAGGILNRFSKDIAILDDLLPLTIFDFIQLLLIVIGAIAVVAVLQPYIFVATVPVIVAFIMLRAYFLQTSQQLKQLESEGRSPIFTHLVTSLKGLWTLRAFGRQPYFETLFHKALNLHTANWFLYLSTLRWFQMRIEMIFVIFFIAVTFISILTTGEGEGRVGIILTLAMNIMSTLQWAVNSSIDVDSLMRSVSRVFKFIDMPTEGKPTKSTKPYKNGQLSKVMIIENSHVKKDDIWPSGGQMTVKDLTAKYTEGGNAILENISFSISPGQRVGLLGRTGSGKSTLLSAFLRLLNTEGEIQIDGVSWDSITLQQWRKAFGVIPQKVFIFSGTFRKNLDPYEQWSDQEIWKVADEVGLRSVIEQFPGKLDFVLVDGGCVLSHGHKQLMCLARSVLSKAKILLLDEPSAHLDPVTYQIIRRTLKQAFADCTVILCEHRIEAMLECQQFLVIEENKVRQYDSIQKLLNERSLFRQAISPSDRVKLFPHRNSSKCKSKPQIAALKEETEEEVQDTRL
T1 sequence (P13569 with tags, fused parts or gaps DEL508-508): as above

Compound | EC50 [1] | Maximum % activity [1] | EC50 [2] | Maximum % activity [2]
COc1ccc2c(c1)O[C@@H](c1cccc(C(=O)O)c1)C[C@H]2NC(=O)[C@@]1(C)CCc2cc(C)ccc21 (single isomer, unassigned) [Example 8] | 24 nM | 85.6% | 100 nM | 91.3%
COc1ccc2c(c1)O[C@@H]([C@H]1CC[C@H](C(=O)O)CC1)C[C@H]2NC(=O)C1(c2ccc3c(c2)OC(F)(F)O3)CC1 [Example 11, trans-4-[(2R,4R)-4-{[1-(2,2-difluoro-2H-1,3-benzodioxol-5-yl)cyclopropane-1-carbonyl]amino}-7-methoxy-3,4-dihydro-2H-1-benzopyran-2-yl]cyclohexane-1-carboxylic acid] | 21 nM | 104.3% | 310 nM | 124.5%
O=C(N[C@@H]1C[C@H]([C@H]2CC[C@H](C(=O)O)CC2)Oc2cc(OC(F)(F)F)ccc21)C1(c2ccc3c(c2)OC(F)(F)O3)CC1 [Example 13, trans-4-[(2R,4R)-4-{[1-(2,2-difluoro-2H-1,3-benzodioxol-5-yl)cyclopropane-1-carbonyl]amino}-7-(trifluoromethoxy)-3,4-dihydro-2H-1-benzopyran-2-yl]cyclohexane-1-carboxylic acid] | 4 nM | 117.5% | 30 nM | 124.0%

The next lines start with the values.

EC50 [1] | Maximum % activity [1] | EC50 [2] | Maximum % activity [2] | Compound
573 nM | 92.0% | 530 nM | 94.7% | O=C(N[C@@H]1C[C@H]([C@H]2CC[C@@H](C(=O)O)CC2)Oc2cc(OC(F)F)ccc21)C1(c2ccc3c(c2)OC(F)(F)O3)CC1 [Example 15A, cis-4-[(2R,4R)-4-{[1-(2,2-difluoro-2H-1,3-benzodioxol-5-yl)cyclopropane-1-carbonyl]amino}-7-(difluoromethoxy)-3,4-dihydro-2H-1-benzopyran-2-yl]cyclohexane-1-carboxylic acid]
30 nM | 109.6% | 110 nM | 125.5% | O=C(N[C@@H]1C[C@H]([C@H]2CC[C@H](C(=O)O)CC2)Oc2cc(OC(F)F)ccc21)C1(c2ccc3c(c2)OC(F)(F)O3)CC1 [Example 15B, trans-4-[(2R,4R)-4-{[1-(2,2-difluoro-2H-1,3-benzodioxol-5-yl)cyclopropane-1-carbonyl]amino}-7-(difluoromethoxy)-3,4-dihydro-2H-1-benzopyran-2-yl]cyclohexane-1-carboxylic acid]
